From patent US20230263826A1, “Compositions and Methods for Treatment and Prevention of Type 1 Diabetes” (The UAB Research Foundation, priority 2021, published 2023) come the findings set out here.

Assay type in all cases: in vivo, mouse
For experiment [1], the system named is female NOD mice. Briefly: T1D incidence in female NOD mice administered FKGK18 (weekly blood glucose monitoring). As for the experimental part: FIGS. 1A-1M show the effects of temporal FKGK18 regimen on T1D incidence and islet phenotype, wherein female NOD mice were administered FKGK18 (20 mg/kg, 3 × weekly) or vehicle (PBS-T) starting at 4 or 8 weeks of age. FIGS. 1A and 1B show diabetes incidence; blood glucose was monitored weekly in the 4-week (FIG. 1A; n = 17 and 15 for PBS-T and FKGK18 groups, respectively) and 8-week (FIG. 1B; n = 15 each in the PBS-T and FKGK18 groups) regimen groups for up to 30 weeks. Two consecutive readings of ≥ 275 mg/dL were recorded as onset of T1D (^†P < 0.05). FIGS. 1C-1F show glucose tolerance test (GTT) results, wherein overnight fasted mice were administered glucose (2 g/kg, i.p.), glucose levels in blood from tail vein were monitored over a 2-hour period, and AUC were generated. FIGS. 1C and 1D show four-week group at 14 weeks of age; n = 5 each in the PBS-T and FKGK18 groups. FIGS. 1E and 1F show eight-week group at 25 weeks of age; n = 7 and 5 for PBS-T and FKGK18 groups, respectively. FIGS. 1G-1I show phenotype parameters in the 8-week regimen group. […] FIGS. 1H and 1I show β Cell mass (PBS-T, n = 15; FKGK18, n = 14) (FIG. 1H) and circulating insulin (n = 15 in each group) (FIG. 1I) were determined at sacrifice (PBS-T, 14-30 weeks of age; FKGK18, 16-36 weeks of age). FIGS. 1J and 1K show islet infiltration; paraffin sections (10 µm) of pancreas were prepared and stained with H&E. Percent infiltration for each islet was calculated as the value of noninfiltrated area subtracted from total islet area (% infiltrate = 100 × [(total area - noninfiltrated area)/(total area)]) using ImageJ software. (PBS-T, n = 14 and 166 islets; FKGK18, n = 15 and 260 islets). […] FIGS. 1L and 1M show islet immune cell phenotype; paraffin sections (10 µm) of pancreas were prepared and stained for CD4+-T cells or B (B220) cells. Data presented are mean ± SEM of CD4+ T cells or B cells per islet. […] Statistical analyses: (FIGS. 1A and 1B) Mantel-Cox test; (FIGS. 1D-1M) Student’s t test.
FIGS. 2A-2E show the effects of FKGK18-withdrawal regimen on T1D incidence and glucose tolerance, wherein female NOD mice were administered FKGK18 (20 mg/kg, 3 × weekly, n = 18) or vehicle (PBS-T, n = 17) starting at 10 days of age and until 14 weeks of age. […] FIGS. 2B and 2D show glucose tolerance test (GTT) results, assessed at 14 (FIG. 2B) and 25 (FIG. 2D) weeks of age (data are presented as mean ± SEM), as described in FIG. 1. FIGS. 2C and 2E show corresponding AUC. […]
Blood glucose levels were measured weekly via tail vein blood draw (2 µL) with Breeze 2 Blood Glucose Monitoring System (Bayer HealthCare). Diabetes incidence was based on 2 consecutive blood glucose readings ≥ 275 mg/dL, at which time the mouse was euthanized. […]

Experiment [2] has as its system female NOD mice. Briefly: β cell mass and circulating insulin at sacrifice in FKGK18-treated NOD mice. The following applies: 8-week regimen group. The procedure:
(§1) FIGS. 1A-1M show the effects of temporal FKGK18 regimen on T1D incidence and islet phenotype, wherein female NOD mice were administered FKGK18 (20 mg/kg, 3 × weekly) or vehicle (PBS-T) starting at 4 or 8 weeks of age. FIGS. 1A and 1B show diabetes incidence; blood glucose was monitored weekly in the 4-week (FIG. 1A; n = 17 and 15 for PBS-T and FKGK18 groups, respectively) and 8-week (FIG. 1B; n = 15 each in the PBS-T and FKGK18 groups) regimen groups for up to 30 weeks. Two consecutive readings of ≥ 275 mg/dL were recorded as onset of T1D (^†P < 0.05). FIGS. 1C-1F show glucose tolerance test (GTT) results, wherein overnight fasted mice were administered glucose (2 g/kg, i.p.), glucose levels in blood from tail vein were monitored over a 2-hour period, and AUC were generated. […] FIGS. 1H and 1I show β Cell mass (PBS-T, n = 15; FKGK18, n = 14) (FIG. 1H) and circulating insulin (n = 15 in each group) (FIG. 1I) were determined at sacrifice (PBS-T, 14-30 weeks of age; FKGK18, 16-36 weeks of age). FIGS. 1J and 1K show islet infiltration; paraffin sections (10 µm) of pancreas were prepared and stained with H&E. Percent infiltration for each islet was calculated as the value of noninfiltrated area subtracted from total islet area (% infiltrate = 100 × [(total area - noninfiltrated area)/(total area)]) using ImageJ software. […]

For experiment [3], the system named is female NOD mice. Briefly: Islet infiltration and islet immune cell phenotype (H&E, CD4+ T cell and B220 staining of pancreas sections). The following applies: 8-week regimen group. As for the experimental part:
as §1, with “generated. FIGS. 1C and 1D show four-week group at 14 weeks of age; n = 5 each in the PBS-T and FKGK18 groups. FIGS. 1E and 1F show eight-week group at 25 weeks of age; n = 7 and 5 for PBS-T and FKGK18 groups, respectively. FIGS. 1G-1I show phenotype parameters in the 8-week regimen group.” for “generated.”, “software. (PBS-T, n = 14 and 166 islets; FKGK18, n = 15 and 260 islets).” for “software.”
Blood glucose levels were measured weekly via tail vein blood draw (2 µL) with Breeze 2 Blood Glucose Monitoring System (Bayer HealthCare). Diabetes incidence was based on 2 consecutive blood glucose readings ≥ 275 mg/dL, at which time the mouse was euthanized. […] Pancreas section and islet images were captured on an Olympus IX81 microscope using cellSens Dimension software and analyzed using ImageJ software (NIH).

With `O=C(CCCCc1ccc2ccccc2c1)C(F)(F)F` [FKGK18], the “mice that remained diabetes free” value in the experiment with female NOD mice [1] (FKGK18 20 mg/kg i.p. 3 times/week starting at 4 weeks of age, monitored up to 30 weeks, PBS-T 80% T1D incidence) is given as 40%. Besides, in the experiment with female NOD mice [1] (FKGK18 20 mg/kg i.p. 3 times/week starting at 8 weeks of age, modest delay), the “T1D incidence vs corresponding PBS-T group” value is reported as “not significantly different”. For the same compound, in the experiment with female NOD mice [1] (FKGK18 20 mg/kg i.p. 3 times/week starting at 10 days of age, by 25-30 weeks of age, vehicle 80%-90% diabetic, data not shown), the “NOD that developed T1D” value is 10%-15%. Besides, in the experiment on female NOD mice [1] (FKGK18 from 10 days until 14 weeks of age, then withdrawn, monitored up to 30 weeks), the “decreased T1D incidence after FKGK18 withdrawal” value was “not evident”. Moreover, in the experiment with female NOD mice [2], the “β cell mass vs PBS-T” value was “similar”. Besides, the “circulating insulin vs PBS-T” value in the experiment on female NOD mice [2] (nonfasting) was “higher”. Moreover, in the experiment on female NOD mice [3], the “pancreatic islet abundance of B cells relative to PBS-T” value was “significantly reduced” and the “pancreatic islet abundance of CD4+ T cells relative to PBS-T” value was “significantly reduced”. Also, the “islet infiltration vs PBS-T” value with female NOD mice [3] (H&E pancreas sections) is “reduced”.
